Results taken from patent publication US4051253A, “Microbicidal nitrofuryl compounds” (Byk Gulden Lomberg Chemische Fabrik GmbH, priority 1974, dated 1977).
Where two headings read alike, the source gives them in different places.

Key:
[1] = test system: Serratia marcescens strain HY/a 21
Ps. aeruginosa 2 = test: microbe, parasite or virus in culture; assay type: cell-based; conditions: for MIC: read-out: Minimum inhibiting concentration (MHK), series dilution test
in vivo = conditions: mouse
Staph. aur. SG 511 = test: microbe, parasite or virus in culture; assay type: cell-based; conditions: for MIC: read-out: Minimum inhibiting concentration (MHK), series dilution test
streptococci group A 807 = test: microbe, parasite or virus in culture; assay type: cell-based; conditions: for MIC: read-out: Minimum inhibiting concentration (MHK), series dilution test
Trichomonas foetus = test: Infection tests with Trichomonas foetus in mice; assay type: in vivo; conditions: for % of Animals Dying After Infection (Mean Value): stomach tube, 3 successive days, NMRI mice
S. typhimurium G 46 = conditions: in vivo
Staph. aur. PCI 1203 = test: microbe, parasite or virus in culture; assay type: cell-based; conditions: for MBC: read-out: Concentration from which subcultures no longer started; for MIC: read-out: Minimum inhibiting concentration (MHK), series dilution test
streptoc. group B 779 = test: microbe, parasite or virus in culture; assay type: cell-based; conditions: for MBC: read-out: Concentration from which subcultures no longer started; for MIC: read-out: Minimum inhibiting concentration (MHK), series dilution test
streptococci group C 805 = test: microbe, parasite or virus in culture; assay type: cell-based; conditions: for MBC: read-out: Concentration from which subcultures no longer started; for MIC: read-out: Minimum inhibiting concentration (MHK), series dilution test
Klebs. pneum. PCI 602 = test: microbe, parasite or virus in culture; assay type: cell-based; conditions: for MBC: read-out: Concentration from which subcultures no longer started; for MIC: read-out: Minimum inhibiting concentration (MHK), series dilution test
E. coli 6106 = test: microbe, parasite or virus in culture; assay type: cell-based; conditions: for MIC: read-out: Minimum inhibiting concentration (MHK), series dilution test
[2] = test system: 9 bacteria and 2 yeast strains; test: In vitro tests with 9 bacteria and 2 yeast strains (summary); assay type: cell-based; conditions: even with the high concentration of 500 μg/ml
C. Albicans 49 = test: microbe, parasite or virus in culture; assay type: cell-based; conditions: Candida albicans; for MIC: read-out: Minimum inhibiting concentration (MHK), series dilution test
C. Paracrusei 45 = test: microbe, parasite or virus in culture; assay type: cell-based; conditions: for MBC: read-out: Concentration from which subcultures no longer started; for MIC: read-out: Minimum inhibiting concentration (MHK), series dilution test
enterococci = test: microbe, parasite or virus in culture; assay type: cell-based; conditions: for MIC: read-out: Minimum inhibiting concentration (MHK), series dilution test
[3] = subcultures applied after 48 h, read after 24 h
[4] = 24 h, read-out: Concentration from which subcultures no longer started, subcultures applied after 24 h, read after 24 h
[5] = 48 h, read-out: Concentration from which subcultures no longer started, subcultures applied after 48 h, read after 48 h
[6] = read-out: Concentration from which subcultures no longer started, subcultures applied after 24 h, read after 48 h
[7] = read-out: Concentration from which subcultures no longer started, subcultures applied after 48 h, read after 24 h

## O=C1CCO1 [β-propiolactone, reference compound]
[1]
  Mutants, Test: 6.6 × 10^2 colonies/ml
  Mutation frequency: 3.4 × 10^-6

## Cc1ncc([N+](=O)[O-])n1CCO [Metronidazol, reference compound]
Ps. aeruginosa 2; Pseudomonas aeruginosa, 2, 24 h, read-out: Concentration from which subcultures no longer started
  MBC: > 500 µg/mL
Ps. aeruginosa 2; Pseudomonas aeruginosa, 2, 24 h
  MIC: > 500 µg/mL
Ps. aeruginosa 2; Pseudomonas aeruginosa, 2, 48 h, read-out: Concentration from which subcultures no longer started
  MBC: > 500 µg/mL
Ps. aeruginosa 2; Pseudomonas aeruginosa, 2, 48 h
  MIC: > 500 µg/mL
Ps. aeruginosa 2; Pseudomonas aeruginosa, 2, read-out: Concentration from which subcultures no longer started
  MBC: > 500 µg/mL
Ps. aeruginosa 2; [3]
  Concentration from which subcultures no longer started: > 500 µg/mL
In vivo
  LD50: > 2000 mg/kg
Staph. aur. SG 511; [4]
  MBC: > 500 µg/mL
Staph. aur. SG 511; 24 h
  MIC: > 500 µg/mL
Staph. aur. SG 511; [5]
  MBC: > 500 µg/mL
Staph. aur. SG 511; 48 h
  MIC: > 500 µg/mL
Staph. aur. SG 511; [6]
  MBC: > 500 µg/mL
Staph. aur. SG 511; [7]
  MBC: > 500 µg/mL
Streptococci group A 807; [4]
  MBC: > 500 µg/mL
Streptococci group A 807; 24 h
  MIC: > 500 µg/mL
Streptococci group A 807; [5]
  MBC: > 500 µg/mL
Streptococci group A 807; 48 h
  MIC: > 500 µg/mL
Streptococci group A 807; [6]
  MBC: > 500 µg/mL
Streptococci group A 807; [7]
  MBC: > 500 µg/mL
Trichomonas foetus; 6.25 mg/kg
  % of Animals Dying After Infection (Mean Value): 90%
Trichomonas foetus; 12.5 mg/kg
  % of Animals Dying After Infection (Mean Value): 80%
Trichomonas foetus; 25 mg/kg
  % of Animals Dying After Infection (Mean Value): 70%
Trichomonas foetus; 50 mg/kg
  % of Animals Dying After Infection (Mean Value): 15%
Trichomonas foetus; 75 mg/kg
  % of Animals Dying After Infection (Mean Value): 0%
Trichomonas foetus; 100 mg/kg
  % of Animals Dying After Infection (Mean Value): 4%
Trichomonas foetus; dose of 6.25 mg/kg, mice infected with T. foetus
  animals survived / survival rate: 10%
S. typhimurium G 46
  Mutation frequency in test animals: 4.6 . 10^-7
Staph. aur. PCI 1203; 24 h
  MBC: > 500 µg/mL
  MIC: > 500 µg/mL
Staph. aur. PCI 1203; 48 h
  MBC: > 500 µg/mL
  MIC: > 500 µg/mL
Staph. aur. PCI 1203
  MBC: > 500 µg/mL
Staph. aur. PCI 1203; [3]
  Concentration from which subcultures no longer started: > 500 µg/mL
streptoc. group B 779; 24 h
  MBC: > 500 µg/mL
  MIC: > 500 µg/mL
streptoc. group B 779; 48 h
  MBC: > 500 µg/mL
  MIC: > 500 µg/mL
streptoc. group B 779
  MBC: > 500 µg/mL
streptoc. group B 779; [3]
  Concentration from which subcultures no longer started: > 500 µg/mL
Streptococci group C 805; 24 h
  MBC: > 500 µg/mL
  MIC: > 500 µg/mL
Streptococci group C 805; 48 h
  MBC: > 500 µg/mL
  MIC: > 500 µg/mL
Streptococci group C 805
  MBC: > 500 µg/mL
Streptococci group C 805; [3]
  Concentration from which subcultures no longer started: > 500 µg/mL
Klebs. pneum. PCI 602; 24 h
  MBC: > 500 µg/mL
  MIC: > 500 µg/mL
Klebs. pneum. PCI 602; 48 h
  MBC: > 500 µg/mL
  MIC: > 500 µg/mL
Klebs. pneum. PCI 602
  MBC: > 500 µg/mL
Klebs. pneum. PCI 602; [3]
  Concentration from which subcultures no longer started: > 500 µg/mL
E. coli 6106; Escherichia coli, 6106, 24 h, read-out: Concentration from which subcultures no longer started
  MBC: > 500 µg/mL
E. coli 6106; Escherichia coli, 6106, 24 h
  MIC: > 500 µg/mL
E. coli 6106; Escherichia coli, 6106, 48 h, read-out: Concentration from which subcultures no longer started
  MBC: > 500 µg/mL
E. coli 6106; Escherichia coli, 6106, 48 h
  MIC: > 500 µg/mL
E. coli 6106; Escherichia coli, 6106, read-out: Concentration from which subcultures no longer started
  MBC: > 500 µg/mL
E. coli 6106; [3]
  Concentration from which subcultures no longer started: > 500 µg/mL
[1]
  Mutants, Test: 5.9 × 10^2 colonies/ml
  Mutation frequency: 3.1 × 10^-6
[2]
  in vitro antibacterial/antiyeast effect (in words): ineffective
C. Albicans 49; [4]
  MBC: > 500 µg/mL
C. Albicans 49; 24 h
  MIC: > 500 µg/mL
C. Albicans 49; [5]
  MBC: > 500 µg/mL
C. Albicans 49; 48 h
  MIC: > 500 µg/mL
C. Albicans 49; [6]
  MBC: > 500 µg/mL
C. Albicans 49; [7]
  MBC: > 500 µg/mL
C. Paracrusei 45; 24 h
  MBC: > 500 µg/mL
  MIC: > 500 µg/mL
C. Paracrusei 45; 48 h
  MBC: > 500 µg/mL
  MIC: > 500 µg/mL
C. Paracrusei 45
  MBC: > 500 µg/mL
C. Paracrusei 45; [3]
  Concentration from which subcultures no longer started: > 500 µg/mL
enterococci; [4]
  MBC: > 500 µg/mL
enterococci; 24 h
  MIC: > 500 µg/mL
enterococci; [5]
  MBC: > 500 µg/mL
enterococci; 48 h
  MIC: > 500 µg/mL
enterococci; [6]
  MBC: > 500 µg/mL
enterococci; [7]
  MBC: > 500 µg/mL
